2 molecules from patent US20030105158A1, “Hydrates of a neuraminic acid compound and crystalline forms thereof” (SANKYO COMPANY, LIMITED, priority 2000, published 2003) can be followed below.

The series can be described thus: Stability test (storage stability, residual amount by HPLC). In kind it is physicochemical. The settings on record: relative to initial content (100%). The procedure:
In the stability test, the crystals of the compound (I) of the present invention prepared in Example 1 and as reference, the amorphous powder (trifluoroacetate salt) of compound (I) described in Example 35 of the specification of Japanese Patent Application Publication No. Hei 10-330373 were used. These compounds were stored separately at 40° C. in a desiccator with a relative humidity of 75% for 56 days (8 weeks), and the content of these compounds was measured on 14 (2 weeks), 28 (4 weeks) and 56 days (8 weeks) after the initiation of the storage.
Furthermore, these compounds were also stored separately at 60° C. in a desiccator with silica gel for 56 days (8 weeks), and the content of these compounds was measured in the same manner as that described above.
The contents of these compounds were determined quantitatively with high performance liquid chromatography (HPLC), and the amount of the remaining compounds (%) at each sampling point was calculated based on the initial content (100%) determined immediately before the storage.

[1] abbreviates: stored at 40° C. in a desiccator with a relative humidity of 75%, 14 days.
Setting [2] is: stored at 40° C. in a desiccator with a relative humidity of 75%, 28 days.
Setting [3] is: stored at 40° C. in a desiccator with a relative humidity of 75%, 56 days.
Where [4] appears, read: stored at 60° C. in a desiccator with silica gel, 14 days.
Where [5] appears, read: stored at 60° C. in a desiccator with silica gel, 28 days.
The mark [6] stands for this setting: stored at 60° C. in a desiccator with silica gel, 56 days.

Structures can show the parent of a compound that is named as a salt.

In the case of `CCCCCCCC(=O)OC[C@@H](O)[C@@H](OC)[C@@H]1OC(C(=O)O)=C[C@H](NC(=N)N)[C@H]1NC(C)=O` [Amorphous powder of compound (I), trifluoroacetate salt of 5-acetamido-4-guanidino-9-O-octanoyl-2,3,4,5-tetradeoxy-7-O-methyl-D-glycero-D-galacto-non-2-enopyranosonic acid], the “Residual amount (amount of the remaining compound)” value is recorded as 38.5% under setting [1]; 27.2% under setting [2]; 10.2% under setting [3]; 10.2% (stored at 40° C. in a desiccator with a relative humidity of 75%, 56 days, listed as amorphous powder (trifluoacetate salt) of compound (I)); 95.7% under setting [4]; 92.9% under setting [5]. Besides, the “Residual amount (amount of the remaining compound)” value reads like this: under setting [6], 89.0%; (stored at 60° C. in a desiccator with silica gel, 56 days, listed as amorphous powder (trifluoacetate salt) of compound (I)) 89%.

As to `CCCCCCCC(=O)OC[C@@H](O)[C@@H](OC)[C@@H]1OC(C(=O)O)=C[C@H](NC(=N)N)[C@H]1NC(C)=O` [Hydrated crystal of compound (I), 5-Acetamido-4-guanidino-9-O-octanoyl-2,3,4,5-tetradeoxy-7-O-methyl-D-glycero-D-galacto-non-2-enopyranosonic Acid Hydrate in Crystalline Form], the “Residual amount (amount of the remaining compound)” value is, setting by setting: under setting [1], 99.8%; under setting [2], 100.2%; under setting [3], 100.3%; (stored at 40° C. in a desiccator with a relative humidity of 75%, 56 days, listed as crystals (hydrated crystals) of compound (I)) 100%; under setting [4], 99.9%; under setting [5], 100.6%. The “Residual amount (amount of the remaining compound)” value was 99.6% under setting [6] and “more than 99%” (stored at 60° C. in a desiccator with silica gel, 56 days, listed as crystals (hydrated crystals) of compound (I)).
